Data published in patent US20220339178A1, “COMPOSITIONS AND METHODS FOR COGNITIVE PROTECTION OF POLLINATORS AGAINST PESTICIDES” (priority 2019, published 2022).

Tests used:
[1] = system: bumblebee Bombus impatiens; assay: Olfactory conditioning of PER in bumblebees: ad libitum rutin vs acute imidacloprid or fipronil; assay type: in vivo; settings: for learning score relative to Control bees: score 0-10, ad libitum 1 μM rutin three days, 5 nM imidacloprid or 6 nM fipronil 20 μL 2 hours before training
Method: One colony of the bumblebee Bombus impatiens (Koppert Inc) was kept in laboratory conditions. Bees received pollen inside the nests and foraged to a 1M sugar-water feeder outside of the nest. Bees were collected while on the feeder and iced anesthetized to then be randomly assigned to one of two plastic containers where ad libitum self-administration of one of two solutions was allowed to 10 bees: i) 1 M sucrose water or ii) 1 μM Rutin (Sigma-Aldrich R5143) diluted in 1M sucrose water. On the night of the third day, the feeder was removed to starve the bees. On the fourth day, the bees were iced anesthetized and yolked restrained in plastic pipettes. Bees were maintained in the pipettes for the rest of the experiment (two days). One hour after harnessing, the bees were randomly assigned to one of three treatments: i) 20 μL of 1M sucrose water, ii) 20 μL of 1M sucrose water+5 nM imidacloprid, iii) 20 μL of 1M sucrose water+6 nM fipronil. Thus, overall bees belonged to one of six treatments:
Control: ad libitum sucrose water for three days and 20 μL of sucrose water before training
Rutin: ad libitum 1 μM Rutin for three days and 20 μL of sucrose water before training
Imid: ad libitum sucrose water for three days and 20 μL of 5 nM Imidacloprid in 1M sugar water 2 hours before training
Rutin+Imid: ad libitum 1 μM Rutin for three days and 20 μL of 5 nM Imidacloprid in 1M sugar water 2 hours before training
Fipronil: ad libitum sucrose water for three days and 20 μL of 5 nM fipronil in 1M sucrose water 2 hours before training
Rutin+Fipronil: ad libitum […] Rutin for three days and 20 μL of 6 nM fipronil in 1M sugar water 2 hours before training
All bees were blind-trained using olfactory conditioning of the proboscis extension response (PER). Briefly, bees were exposed to a presentation of 1-nonanol (Sigma-Aldrich) for 10 s. After 7 s of the onset of the odor presentation, the antenna was stimulated with 1.5 M sugar-water to elicit the PER. Following the PER, the bee was allowed to drink sugar-water for 3 s. Each paired presentation was considered a training trial and each individual received eleven training trials with an average intertrial interval of 10 minutes. After training, all bees were fed 20 μL of 1M sugar water and maintained in plastic boxes for 24 h until the retention test. […] Twenty-four hours after the last training trial the bees were presented with the conditioned odor for 10 s.
Learning for each individual was quantified as the number of conditioned PER responses across the trials. Thus, for each bee a learning score between zero and ten (0-10) was recorded.
Multiple comparisons were then run comparing learning score relative to Control bees using a non-parametric one or two-tailed Steel Method depending upon predictions. These comparisons informed us about the predicted impairment produced by the insecticides, the predicted innocuous effect of the flavonoid and the potential level of protection. Error due to multiple comparisons was controlled using the False Discovery Rate method (FDR-two stage sharpened method). In all cases corrected p-values (q-values) are presented.
Memory retention was quantified as a nominal variable (yes/no). Data were compared across treatments using a Chi-square test, followed by multiple comparisons of all treatments vs. Control. Error due to multiple comparisons was controlled using the FDR as indicated above. In all cases corrected p-values (q values) are presented.
Latency was quantified as a continuous variable between 0.5 s and 10 s. Data were compared across treatments using an ANOVA following a Log transformation to normalize the distribution (Shapiro-Wilk W Test after log transformation: p>0.05 for all treatments for the null hypothesis that data is from a normal distribution), followed by multiple comparisons between all treatments and the Control group. Error due to multiple comparisons was controlled using the FDR method as indicated above. […]

[2] = system: Drosophila melanogaster; assay: Motor activity (negative geotropic response) test in flies: rutin vs imidacloprid; assay type: in vivo
Method: Standard methods were relied on to test motor activity and motor impairments in Drosophila melanogaster (Jimenez-Del-Rio et al. 2010. Neurochem Res 35:227-238). The method relies on the negative geotropic response (i.e. preference to walk up when standing on a wall) of insects. Four-day-old (post eclosion) D. melanogaster females were randomly assigned to one of four treatments: Control (fed on 5% sugar-water), Rutin 0.1 (fed on a solution 0.1 μM rutin in 5% sugar-water), Rutin 1 (fed on a solution 1 μM rutin in 5% sugar-water), Rutin 10 (fed on a solution 10 uM rutin in 5% sugar-water). After three days flies from each group were randomly assigned to one of two treatments: 5% sugar-water or 0.1 μM imid in 5% sugar-water. Thus, flies were in one of eight treatments: Control, Imid, Rut 0.1, Rut 0.1+Imid, Rut 1, Rut 1+Imid, Rut 10, Rut 10+Imid. Flies were exposed to their specific treatment for 22 h.
Following standard methods, flies were transferred to a clean vial and a threshold of 5 cm from the bottom was set on the vial. The bottom of the vial was knocked on the table to assure all flies were moved to the bottom. The number of flies that crossed the threshold within 6 seconds were counted. Data were analyzed using a Chi-square with specific predictions (one-tail tests) for planned comparisons. Error associated with multiple comparisons was corrected using the False Discovery Rate-method (two stage sharpen method).

SMILES	learning score relative to Control bees ([1]; bumblebees)	protection against imidacloprid neuromotor impairment ([2]; flies fed rutin 0.1, 1 or 10 μM for three days before 0.1 μM imid)	odds of remembering for Control bees relative to insecticide bees ([1]; 24 h retention) [times]	proportion difference Control minus insecticide group for a PER response (Adjusted Wald test) ([1]; 24 h retention)	decision-making ratio (latency of response / learning score) relative to Control bees ([1]; bumblebees)	bees exhibiting a conditioned response after 24 h ([1]; bumblebees, 24 h retention test) [%]	motor performance relative to flies in the control group ([2]; 0.1 μM imid in 5% sugar-water for 22 h, flies crossing 5 cm threshold within 6 seconds)	motor performance relative to flies prophylactically receiving 0.1 μM rutin ([2]; comparator rutin 0.1 μM then imid)	motor performance relative to flies prophylactically receiving 1 NM rutin ([2]; comparator rutin 1 μM then imid)	motor performance relative to flies prophylactically receiving 10 μM rutin ([2]; comparator rutin 10 μM then imid)
C[C@@H]1O[C@@H](OC[C@H]2O[C@@H](Oc3c(-c4ccc(O)c(O)c4)oc4cc(O)cc(O)c4c3=O)[C@H](O)[C@@H](O)[C@@H]2O)[C@H](O)[C@H](O)[C@H]1O [Rutin]	not significantly different	protected against this impairment								
O=[N+]([O-])NC1=NCCN1Cc1ccc(Cl)nc1 [Imidacloprid]	significantly lower		12	0.51	significant increase	13	lower performance	significantly lower	significantly lower	significantly lower
